Source: PubChem BioAssay (NCI)
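Values below derive from 48-hour exposures of cells grown in 96-well plates, with endpoints linearly interpolated between the two concentrations bracketing the appropriate inhibition level. The concentration for full growth arrest is given as TGI.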

What was measured:
Assay in all cases: growth of human tumour cells (NCI), 48 h
786-0 renal = tested on: 786-0 renal
A498 renal = tested on: A498 renal
A549 NSCLC = tested on: A549 NSCLC
ACHN renal = tested on: ACHN renal
CAKI-1 renal = tested on: CAKI-1 renal
CCRF-CEM leukemia = tested on: CCRF-CEM leukemia
COLO 205 colon = tested on: COLO 205 colon
DLD-1 colon = tested on: DLD-1 colon
DMS 114 small cell lung = tested on: DMS 114 small cell lung
DMS 273 small cell lung = tested on: DMS 273 small cell lung
HCC-2998 colon = tested on: HCC-2998 colon
HCT-116 colon = tested on: HCT-116 colon
HCT-15 colon = tested on: HCT-15 colon
HL-60(TB) leukemia = tested on: HL-60(TB) leukemia
HOP-18 NSCLC = tested on: HOP-18 NSCLC
HOP-62 NSCLC = tested on: HOP-62 NSCLC
HOP-92 NSCLC = tested on: HOP-92 NSCLC
HT29 colon = tested on: HT29 colon
IGROV1 ovarian = tested on: IGROV1 ovarian
K-562 leukemia = tested on: K-562 leukemia
KM12 colon = tested on: KM12 colon
KM20L2 colon = tested on: KM20L2 colon
LOX IMVI melanoma = tested on: LOX IMVI melanoma
LXFL 529 NSCLC = tested on: LXFL 529 NSCLC
M14 melanoma = tested on: M14 melanoma
M19-MEL melanoma = tested on: M19-MEL melanoma
MALME-3M melanoma = tested on: MALME-3M melanoma
NCI-H23 lung = tested on: NCI-H23 lung
NCI-H460 lung = tested on: NCI-H460 lung
NCI-H522 lung = tested on: NCI-H522 lung
OVCAR-3 ovarian = tested on: OVCAR-3 ovarian
OVCAR-5 ovarian = tested on: OVCAR-5 ovarian
OVCAR-8 ovarian = tested on: OVCAR-8 ovarian
RPMI-8226 leukemia = tested on: RPMI-8226 leukemia
SF-268 CNS = tested on: SF-268 CNS
SF-295 CNS = tested on: SF-295 CNS
SF-539 CNS = tested on: SF-539 CNS
SK-MEL-2 melanoma = tested on: SK-MEL-2 melanoma
SK-MEL-28 melanoma = tested on: SK-MEL-28 melanoma
SK-MEL-5 melanoma = tested on: SK-MEL-5 melanoma
SK-OV-3 ovarian = tested on: SK-OV-3 ovarian
SN12C renal = tested on: SN12C renal
SNB-19 CNS = tested on: SNB-19 CNS
SNB-75 CNS = tested on: SNB-75 CNS
SNB-78 CNS = tested on: SNB-78 CNS
SR leukemia = tested on: SR leukemia
SW-620 colon = tested on: SW-620 colon
TK-10 renal = tested on: TK-10 renal
U251 CNS = tested on: U251 CNS
UACC-257 melanoma = tested on: UACC-257 melanoma
UACC-62 melanoma = tested on: UACC-62 melanoma
UO-31 renal = tested on: UO-31 renal
DU-145 prostate = tested on: DU-145 prostate
EKVX NSCLC = tested on: EKVX NSCLC
HS 578T breast = tested on: HS 578T breast
MCF7 breast = tested on: MCF7 breast
MDA-MB-231 breast = tested on: MDA-MB-231 breast
MDA-MB-435 = tested on: MDA-MB-435
MDA-N = tested on: MDA-N
MOLT-4 leukemia = tested on: MOLT-4 leukemia
NCI-H226 lung = tested on: NCI-H226 lung
OVCAR-4 ovarian = tested on: OVCAR-4 ovarian
PC-3 prostate = tested on: PC-3 prostate
RXF 393 renal = tested on: RXF 393 renal
T-47D breast = tested on: T-47D breast
XF 498 CNS = tested on: XF 498 CNS

C[C@@H]1C2=CC[C@@]3(C)C(CCC3[C@H](C)[C@H]3C[C@@]4(C)O[C@@](c5cccnc5)(O3)OC4(C)C)[C@@H]2C2OC2[C@@]12CCC(=O)O2 (stereo partly specified)
TGI (786-0 renal): > 100 µM
TGI (A498 renal): > 100 µM
TGI (A549 NSCLC): > 100 µM
TGI (ACHN renal): > 100 µM
TGI (CAKI-1 renal): 79.6 µM
TGI (CCRF-CEM leukemia): > 100 µM
TGI (COLO 205 colon): 77.2 µM
TGI (DLD-1 colon): > 100 µM
TGI (DMS 114 small cell lung): > 100 µM
TGI (DMS 273 small cell lung): > 100 µM
TGI (HCC-2998 colon): > 100 µM
TGI (HCT-116 colon): > 100 µM
TGI (HCT-15 colon): > 100 µM
TGI (HL-60(TB) leukemia): 41.4 µM
TGI (HOP-18 NSCLC): 87.1 µM
TGI (HOP-62 NSCLC): > 100 µM
TGI (HOP-92 NSCLC): 76.9 µM
TGI (HT29 colon): > 100 µM
TGI (IGROV1 ovarian): > 100 µM
TGI (K-562 leukemia): > 100 µM
TGI (KM12 colon): > 100 µM
TGI (KM20L2 colon): 96.2 µM
TGI (LOX IMVI melanoma): > 100 µM
TGI (LXFL 529 NSCLC): > 100 µM
TGI (M14 melanoma): 60.6 µM
TGI (M19-MEL melanoma): > 100 µM
TGI (MALME-3M melanoma): 92.7 µM
TGI (NCI-H23 lung): > 100 µM
TGI (NCI-H460 lung): > 100 µM
TGI (NCI-H522 lung): > 100 µM
TGI (OVCAR-3 ovarian): 85.9 µM
TGI (OVCAR-5 ovarian): > 100 µM
TGI (OVCAR-8 ovarian): > 100 µM
TGI (RPMI-8226 leukemia): > 100 µM
TGI (SF-268 CNS): > 100 µM
TGI (SF-295 CNS): > 100 µM
TGI (SF-539 CNS): > 100 µM
TGI (SK-MEL-2 melanoma): 58.6 µM
TGI (SK-MEL-28 melanoma): > 100 µM
TGI (SK-MEL-5 melanoma): 78.1 µM
TGI (SK-OV-3 ovarian): > 100 µM
TGI (SN12C renal): > 100 µM
TGI (SNB-19 CNS): > 100 µM
TGI (SNB-75 CNS): > 100 µM
TGI (SNB-78 CNS): > 100 µM
TGI (SR leukemia): > 100 µM
TGI (SW-620 colon): > 100 µM
TGI (TK-10 renal): > 100 µM
TGI (U251 CNS): > 100 µM
TGI (UACC-257 melanoma): > 100 µM
TGI (UACC-62 melanoma): > 100 µM
TGI (UO-31 renal): 97.1 µM

CC1(C)C(=O)/C=C\C(=O)C(C)(C)C(=O)/C=C\C(=O)C(C)(C)C(=O)/C=C\C(=O)C(C)(C)C(=O)/C=C\C1=O
TGI (786-0 renal): 49.1 µM
TGI (A498 renal): > 100 µM
TGI (A549 NSCLC): > 100 µM
TGI (ACHN renal): > 63.2 µM
TGI (CAKI-1 renal): 31.2 µM
TGI (CCRF-CEM leukemia): 23.4 µM
TGI (COLO 205 colon): 33.2 µM
TGI (DLD-1 colon): 30.1 µM
TGI (DMS 273 small cell lung): 37.4 µM
TGI (DU-145 prostate): > 100 µM
TGI (EKVX NSCLC): 69.6 µM
TGI (HCT-116 colon): 30.8 µM
TGI (HCT-15 colon): 61.5 µM
TGI (HL-60(TB) leukemia): 10.4 µM
TGI (HOP-18 NSCLC): 40.6 µM
TGI (HOP-62 NSCLC): > 100 µM
TGI (HOP-92 NSCLC): 29.1 µM
TGI (HS 578T breast): > 100 µM
TGI (HT29 colon): 37.3 µM
TGI (IGROV1 ovarian): 56.5 µM
TGI (K-562 leukemia): 39.4 µM
TGI (KM12 colon): > 72.8 µM
TGI (KM20L2 colon): 83.2 µM
TGI (LOX IMVI melanoma): > 53.8 µM
TGI (LXFL 529 NSCLC): 21.3 µM
TGI (M14 melanoma): 48.8 µM
TGI (M19-MEL melanoma): 40.6 µM
TGI (MALME-3M melanoma): 33.1 µM
TGI (MCF7 breast): > 100 µM
TGI (MDA-MB-231 breast): > 100 µM
TGI (MDA-MB-435): > 100 µM
TGI (MDA-N): > 100 µM
TGI (MOLT-4 leukemia): 26.7 µM
TGI (NCI-H226 lung): > 86.5 µM
TGI (NCI-H23 lung): 51.6 µM
TGI (NCI-H460 lung): > 100 µM
TGI (NCI-H522 lung): 20.2 µM
TGI (OVCAR-3 ovarian): 48.7 µM
TGI (OVCAR-4 ovarian): 53.1 µM
TGI (OVCAR-5 ovarian): 69.7 µM
TGI (OVCAR-8 ovarian): 74.5 µM
TGI (PC-3 prostate): > 100 µM
TGI (RPMI-8226 leukemia): 24.2 µM
TGI (RXF 393 renal): 34.1 µM
TGI (SF-268 CNS): > 69.3 µM
TGI (SF-295 CNS): 54.5 µM
TGI (SF-539 CNS): 55.8 µM
TGI (SK-MEL-2 melanoma): 47.5 µM
TGI (SK-MEL-28 melanoma): > 58 µM
TGI (SK-MEL-5 melanoma): 56.2 µM
TGI (SK-OV-3 ovarian): > 96.1 µM
TGI (SN12C renal): 54.8 µM
TGI (SNB-19 CNS): > 71.1 µM
TGI (SNB-75 CNS): 99.4 µM
TGI (SNB-78 CNS): 50 µM
TGI (SR leukemia): 27.8 µM
TGI (SW-620 colon): 28.1 µM
TGI (T-47D breast): > 100 µM
TGI (TK-10 renal): > 68.6 µM
TGI (U251 CNS): 64.3 µM
TGI (UACC-257 melanoma): 63.9 µM
TGI (UACC-62 melanoma): 56.3 µM
TGI (UO-31 renal): 56 µM
TGI (XF 498 CNS): 51.4 µM
